Assay results taken from patent US20250034173A1, “PYRIDO[4,3-D]PYRIMIDINE COMPOUNDS” (PFIZER INC., priority 2023, published 2025).

Key:
[1] = tested on: PANC08.13 (pancreatic cancer cell line); assay: KRAS Cell Titer Glo (CTG) cell proliferation assay, PANC08.13; assay type: cell-based; details: Homo sapiens, PANC-08-13, 168 h; PANC08.13 cells, 7-day CTG, geomean IC50
Source text: (§1) The CellTiter-Glo® (CTG) Luminescent Cell Viability Assay is a homogeneous method of determining the number of viable cells in culture based on quantitation of the ATP present, an indicator of metabolically active cells. The CTG is designed for use with multi-well formats, making it ideal for automated high-throughput screening (HTS), cell proliferation and cytotoxicity assays. The homogeneous assay procedure involves adding the single reagent (CellTiter-Glo® Reagent) directly to cells cultured in serum-supplemented medium. Cell washing, removal of medium and multiple pipetting steps are not required. The system detects as few as 15 cells per well in a 384-well format in 10 minutes after adding reagent and mixing.
(§2) Cells are grown in humidified 5% CO2 incubator at 37° C. using the culture conditions outlined below. All cell culture media reagents were purchased from Gibco. Cell lines purchased from ATCC: H358 (non-small cell lung cancer cell line), SW620 (colorectal cancer cell line), PANC08.13 (RPM11640+10% FBS+10 units/mL Insulin, pancreatic cancer cell line). Test and control compounds are dispensed as nanoliter drops according to desired final concentrations in 0.1% DMSO using Echo Acoustic Dispenser onto 384 assay plates (Corning, Cat #3764) prior to cell seeding. Cells were seeded in 40 μL volume per well at the following cell densities (cells per well): H358 (300), SW620 (750), PANC 08.13 (600). Cells are incubated in the presence of compound for 7-days. Viability is determined on Day 7 using CellTiter-Glo® (CTG) Luminescent Cell Viability Assay (Promega). CTG is added to a […] per well and incubated at room temperature for 15 minutes before luminescence is captured using an EnVision Reader with LUM384 US protocol. Data is analyzed using Activity Base to determine compound response and will be represented either as a percent effect (PCTEFF) or percent control (PCTOCTL) as described: Zero percent effect control (ZPE) (Negative control)—100% DMSO. Hundred percent effect (HPE) (Positive control)—1 uM Trametinib (GSK1120212, MEK inhibitor) (4 nl of 10 mM and 36 nl of DMSO per well). The following equations/nomenclature are used (% Effect; PCTEFF) and (% of Control; PCTOCTL): PCTEFF: 100*(Raw_Data_Value−HPE/ZPE−HPE), PCTOCTL: 100*Raw_Data_Value/User_Defined_Array), where the User_Defined_Array is either summarized HPE or ZPE.
(§3) Cells with “nd” indicate compound not tested in that particular assay at time of writing. It is to be understood that the geomean IC50 data may change slightly over time with increasing repeat data (ie: increasing n #).

KRAS G12V = KRAS G12V (Homo sapiens (Human), UniProt P01116, G12V); assay: SPR binding affinity and kinetics, GTPγS-loaded KRAS G12V; details: GTPγS loaded protein, geomean
Source text: (§4) No additional regeneration was used.
(§5) Compound dissociation was monitored for at least 3600 seconds. […] No additional regeneration was used.
(§6) The adequateness of the fit was judged by c2 values and the randomness of residue distribution.

KRAS G12D = KRAS G12D (Homo sapiens (Human), UniProt P01116, G12D); assay: SPR binding affinity and kinetics, GTPγS-loaded KRAS G12D; details: GTPγS loaded protein, geomean
Source text: as §4, §5, §6

[2] = tested on: SW620 (colorectal cancer cell line); assay: KRAS Cell Titer Glo (CTG) cell proliferation assay, SW620; assay type: cell-based; details: Homo sapiens, SW-620, 168 h; SW620 cells, 7-day CTG, geomean IC50
Source text: as §1, §2, §3

[3] = tested on: H358 (non-small cell lung cancer cell line); assay: KRAS Cell Titer Glo (CTG) cell proliferation assay, H358; assay type: cell-based; details: Homo sapiens, NCI-H358, 168 h; H358 cells, 7-day CTG, geomean IC50
Source text: as §1, §2, §3

KRAS G12C = KRAS G12C (Homo sapiens (Human), UniProt P01116, G12C); assay: SPR binding affinity and kinetics, GTPγS-loaded KRAS G12C; details: GTPγS loaded protein, geomean
Source text: as §4, §5, §6

KRAS Wild Type = KRAS Wild Type (Homo sapiens (Human), UniProt P01116); assay: SPR binding affinity and kinetics, GTPγS-loaded KRAS Wild Type; details: GTPγS loaded protein, geomean
Source text: as §4, §5, §6

Sequence of KRAS Wild Type (P01116 other isoform, or with tags, fused parts or gaps): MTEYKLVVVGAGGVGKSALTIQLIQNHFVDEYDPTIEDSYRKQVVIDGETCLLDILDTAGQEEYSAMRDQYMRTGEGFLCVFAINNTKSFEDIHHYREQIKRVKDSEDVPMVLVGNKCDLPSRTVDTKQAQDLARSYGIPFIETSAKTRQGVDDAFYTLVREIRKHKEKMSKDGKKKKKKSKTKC
Sequence of KRAS G12D (P01116 other isoform, or with tags, fused parts or gaps G12D): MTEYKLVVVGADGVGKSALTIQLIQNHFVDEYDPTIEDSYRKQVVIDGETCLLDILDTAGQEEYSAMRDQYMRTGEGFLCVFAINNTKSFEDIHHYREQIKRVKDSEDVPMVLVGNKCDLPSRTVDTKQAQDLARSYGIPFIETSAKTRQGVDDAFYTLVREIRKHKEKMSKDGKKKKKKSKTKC
Sequence of KRAS G12V (P01116 other isoform, or with tags, fused parts or gaps G12V): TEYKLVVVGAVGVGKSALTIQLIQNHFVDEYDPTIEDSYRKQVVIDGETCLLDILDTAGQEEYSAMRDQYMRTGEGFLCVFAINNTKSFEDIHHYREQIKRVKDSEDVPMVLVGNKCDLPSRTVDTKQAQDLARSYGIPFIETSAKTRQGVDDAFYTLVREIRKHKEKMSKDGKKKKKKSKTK
Sequence of KRAS G12C (P01116 other isoform, or with tags, fused parts or gaps G12C): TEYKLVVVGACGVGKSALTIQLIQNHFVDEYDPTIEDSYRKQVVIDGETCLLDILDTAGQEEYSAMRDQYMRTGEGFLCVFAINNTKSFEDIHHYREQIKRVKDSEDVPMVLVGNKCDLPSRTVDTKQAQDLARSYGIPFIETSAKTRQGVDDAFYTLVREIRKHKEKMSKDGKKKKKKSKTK

Structure (SMILES)	IC50 [1] [nM]	Kd (KRAS G12V) [nM]	Kd (KRAS G12D) [nM]	IC50 [2] [nM]	IC50 [3] [nM]	Kd (KRAS G12C) [nM]	Kd (KRAS Wild Type) [nM]
C=C1CN2CCC[C@@]2(COc2nc3c4c(nc(-c5c6c(cc7[nH]ncc57)CCC[C@@H]6C)c(F)c4n2)OC[C@@H]2COCCCN32)C1 [Example 32, (8aS)-4-fluoro-2-{[(7aS)-2-methylidenetetrahydro-1H-pyrrolizin-7a(5H)-yl]methoxy}-5-[(5S)-5-methyl-5,6,7,8-tetrahydro-1H-benzo[f]indazol-4-yl]-8a,9,12,13-tetrahydro-8H,11H-7,10-dioxa-1,3,6,13a-tetraazanaphtho[1,8-ab]heptalene]	161	36	19	1420	768	39	46
C=C1CN2CCC[C@@]2(COc2nc3c4c(nc(-c5cccc6[nH]ncc56)c(F)c4n2)OC[C@@H]2COCCCN32)C1 [Example 34, (8aS)-4-fluoro-5-(1H-indazol-4-yl)-2-{[(7aS)-2-methylidenetetrahydro-1H-pyrrolizin-7a(5H)-yl]methoxy}-8a,9,12,13-tetrahydro-8H,11H-7,10-dioxa-1,3,6,13a-tetraazanaphtho[1,8-ab]heptalene]	9350	> 10000	> 10000	> 9990	> 9990	> 10000	> 10000
Fc1c(-c2c(C3CC3)c(Cl)cc3[nH]ncc23)nc2c3c(nc(OC[C@@]45CCCN4CC(=C4CCOCC4)C5)nc13)N1CCCOC[C@H]1CO2 [Example 42, (8aS)-5-(6-chloro-5-cyclopropyl-1H-indazol-4-yl)-4-fluoro-2-{[(7aS)-2-(oxan-4-ylidene)tetrahydro-1H-pyrrolizin-7a(5H)-yl]methoxy}-8a,9,12,13-tetrahydro-8H,11H-7,10-dioxa-1,3,6,13a-tetraazanaphtho[1,8-ab]heptalene]	44	32	24	233	288	33	68
CN(C)C(=O)/C=C1\CN2CCC[C@@]2(COc2nc3c4c(nc(-c5c(C6CC6)c(Cl)cc6[nH]ncc56)c(F)c4n2)OC[C@@H]2COCCCN32)C1 [Example 43, (2Z)-2-[(7aS)-7a-({[(8aS)-5-(6-chloro-5-cyclopropyl-1H-indazol-4-yl)-4-fluoro-8a,9,12,13-tetrahydro-8H,11H-7,10-dioxa-1,3,6,13a-tetraazanaphtho[1,8-ab]heptalen-2-yl]oxy}methyl)tetrahydro-1H-pyrrolizin-2(3H)-ylidene]-N,N-dimethylacetamide]	5510	677	493	> 9990	> 9990	539	742
OC/C=C1\CN2CCC[C@@]2(COc2nc3c4c(nc(-c5c(C6CC6)c(Cl)cc6[nH]ncc56)c(F)c4n2)OC[C@@H]2COCCCN32)C1 [Example 44, (2Z)-2-[(7aS)-7a-({[(8aS)-5-(6-chloro-5-cyclopropyl-1H-indazol-4-yl)-4-fluoro-8a,9,12,13-tetrahydro-8H,11H-7,10-dioxa-1,3,6,13a-tetraazanaphtho[1,8-ab]heptalen-2-yl]oxy}methyl)tetrahydro-1H-pyrrolizin-2(3H)-ylidene]ethan-1-ol]	125	3	2	94	43	3	3

Molecules with a lower IC50 [1], results first:

IC50 [1] [nM]	Kd (KRAS G12V) [nM]	Kd (KRAS G12D) [nM]	IC50 [2] [nM]	IC50 [3] [nM]	Kd (KRAS G12C) [nM]	Kd (KRAS Wild Type) [nM]	Structure (SMILES)
18	6	6	103	58	6	8	C=C1CN2CCC[C@@]2(COc2nc3c4c(nc(-c5c(CC)c(Cl)cc6[nH]ncc56)c(F)c4n2)OC[C@@H]2COCCCN32)C1 [Example 33, (8aS)-5-(6-chloro-5-ethyl-1H-indazol-4-yl)-4-fluoro-2-{[(7aS)-2-methylidenetetrahydro-1H-pyrrolizin-7a(5H)-yl]methoxy}-8a,9,12,13-tetrahydro-8H,11H-7,10-dioxa-1,3,6,13a-tetraazanaphtho[1,8-ab]heptalene]
13	2	3	22	41	2	4	C=C1CN2C[C@H](O)C[C@@]2(COc2nc3c4c(nc(-c5c(C6CC6)c(Cl)cc6[nH]ncc56)c(F)c4n2)OC[C@@H]2COCCCN32)C1 [Example 25, (2R,7aR)-7a-({[(8aS)-5-(6-chloro-5-cyclopropyl-1H-indazol-4-yl)-4-fluoro-8a,9,12,13-tetrahydro-8H,11H-7,10-dioxa-1,3,6,13a-tetraazanaphtho[1,8-ab]heptalen-2-yl]oxy}methyl)-6-methylidenehexahydro-1H-pyrrolizin-2-ol]
13	6	4	60	52	7	6	Fc1c(-c2c(C3CC3)c(Cl)cc3[nH]ncc23)nc2c3c(nc(OC[C@@]45CCCN4CC(=C4CC4)C5)nc13)N1CCCOC[C@H]1CO2 [Example 40, (8aS)-5-(6-chloro-5-cyclopropyl-1H-indazol-4-yl)-2-{[(7aS)-2-cyclopropylidenetetrahydro-1H-pyrrolizin-7a(5H)-yl]methoxy}-4-fluoro-8a,9,12,13-tetrahydro-8H,11H-7,10-dioxa-1,3,6,13a-tetraazanaphtho[1,8-ab]heptalene]
10	12	8	49	126	12	11	Fc1c(-c2c(C3CC3)c(Cl)cc3[nH]ncc23)nc2c3c(nc(OC[C@@]45C[C@@H](F)CN4CC4(CC4)C5)nc13)N1CCCOC[C@H]1CO2 [Example 35, (8aS)-2-{[(6′R,7′aR)-6′-fluorodihydro-1′H,3′H-spiro[cyclopropane-1,2′-pyrrolizin]-7′a(5′H)-yl]methoxy}-5-(6-chloro-5-cyclopropyl-1H-indazol-4-yl)-4-fluoro-8a,9,12,13-tetrahydro-8H,11H-7,10-dioxa-1,3,6,13a-tetraazanaphtho[1,8-ab]heptalene]
9	6	4	74	72	3	9	C/C=C1/CN2CCC[C@@]2(COc2nc3c4c(nc(-c5c(C6CC6)c(Cl)cc6[nH]ncc56)c(F)c4n2)OC[C@@H]2COCCCN32)C1 [Example 27, (8aS)-5-(6-chloro-5-cyclopropyl-1H-indazol-4-yl)-2-{[(2E,7aS)-2-ethylidenetetrahydro-1H-pyrrolizin-7a(5H)-yl]methoxy}-4-fluoro-8a,9,12,13-tetrahydro-8H,11H-7,10-dioxa-1,3,6,13a-tetraazanaphtho[1,8-ab]heptalene]
2	4	2	18	8	3	4	C=C1CN2CCC[C@@]2(COc2nc3c4c(nc(-c5c(C6CC6)c(Cl)cc6[nH]ncc56)c(F)c4n2)OC[C@@H]2COCC[C@H](C)N32)C1 [Example 38, (8aS,13S)-5-(6-chloro-5-cyclopropyl-1H-indazol-4-yl)-4-fluoro-13-methyl-2-{[(7aS)-2-methylidenetetrahydro-1H-pyrrolizin-7a(5H)-yl]methoxy}-8a,9,12,13-tetrahydro-8H,11H-7,10-dioxa-1,3,6,13a-tetraazanaphtho[1,8-ab]heptalene]
